From patent US20230039836A1, “AROMATIC SULPHONAMIDES DERIVATIVES THAT INHIBITS PDI A3, THEIR SYNTHESIS AND USE” (Uniwersytet Jagiellonski, priority 2020, published 2023) come the findings set out here.

Values after ≈ are worked out from the molar mass of the structure shown.

The subject of data set [1] is MCF-7. The data set can be described thus: Sulforhodamine B antiproliferative assay, 72 h, normal and hypoxia. The note with it: Homo sapiens, MCF7; hypoxia (<1% of oxygen), 72-hour exposition; read-out: IC50 [µg/ml] MCF-7 hypoxia. It counts as cell-based, human. The essentials: (§1)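 Cells at 10^5 cells/mL were given four concentrations within 0.1-100 ug/mL for 72 h at 37° C., under 21% O2 (normal) or <1% O2 (hypoxia). Growth read by sulforhodamine B staining after TCA fixation (A540); MTT (A570) was used for estradiol (200 nM) runs. Mean IC50 ± SD from ≥3 independent triplicate experiments.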

In data set [2] the test system is MDA-MB-231. The description is as above. It counts as cell-based, human. The following applies: Homo sapiens, MDA-MB-231, 72-hour exposition. The essentials: as §1
Data set [3] relates to Caco-2. As to the kind of experiment: Sulforhodamine B antiproliferative assay, 72 h. It counts as cell-based, human. The following applies: Homo sapiens, Caco-2; normal (21% of oxygen), 72-hour exposition.
Experimental: In the experiment, cells were seeded on 96-well plates (Sarstedt, Germany) in appropriate culture medium at a density of 10^5 cells/mL 24 h before adding the tested compounds. Cells were treated with each compound in four concentrations in the range 0.1-100 ug/mL. […] Briefly, cells were fixed with 50 µL/well of 50% (w/v) trichloroacetic acid (Avantor Performance Materials, Gliwice, Poland). After 1 h incubation, plates were washed several times with tap water and 50 µL of 0.4% (w/v) solution of sulforhodamine B (Sigma-Aldrich, Germany) in 1% (v/v) acetic acid (Avantor Performance Materials, Gliwice, Poland) was added to each well. After 30 min incubation at room temperature, unbound dye was washed out with 1% (v/v) acetic acid, whereas bound dye was solubilized with 10 mM unbuffered TRIS (Avantor Performance Materials, Gliwice, Poland) solution. […] After additional 30 min, absorbance was read using a Biotek Hybrid H4 reader (BioTek Instruments, USA) at 540 nm wavelength.
Data set [4] relates to MCF-7. As to the kind of experiment: MTT antiproliferative assay, 72 h, with or without estradiol. It counts as cell-based, human. The following applies: 72 hours exposition; for IC50: Homo sapiens, MCF7, MTT. As to the method: (§2) Anticancer activity of PDI A1-inhibitors has been also tested in vitro in antiproliferative essay in normoxic and hypoxic conditions as well in estrogen-stimulated cancer cells. In the experiment, cells were seeded on 96-well plates (Sarstedt, Germany) in appropriate culture medium at a density of 10^5 cells/mL 24 h before adding the tested compounds. Cells were treated with each compound in four concentrations in the range 0.1-100 ug/mL. […] After 72 h of compound treatment at 37° C., 5 % CO2 humid atmosphere and in wo different oxygen level conditions: 21% - normal and <1% - hypoxia. In some experiments, the MDA-MB-231 and MCF-7 cells were seeded with or without 200 nM estradiol and after 24 h the tested compounds were added. A previously described sulforhodamine B antiproliferative assay was used with minor modifications (Skehan P et al., 1990). Briefly, cells were fixed with 50 µL/well of 50% (w/v) trichloroacetic acid (Avantor Performance Materials, Gliwice, Poland). After 1 h incubation, plates were washed several times with tap water and 50 µL of 0.4% (w/v) solution of sulforhodamine B (Sigma-Aldrich, Germany) in 1% (v/v) acetic acid (Avantor Performance Materials, Gliwice, Poland) was added to each well. After 30 min incubation at room temperature, unbound dye was washed out with 1% (v/v) acetic acid, whereas bound dye was solubilized with 10 mM unbuffered TRIS (Avantor Performance Materials, Gliwice, Poland) solution. The entire procedure was performed using a BioTek EL-406 washing station (BioTek Instruments, USA). After additional 30 min, absorbance was read using a Biotek Hybrid H4 reader (BioTek Instruments, USA) at 540 nm wavelength. MTT assay was used alternatively for HL-60 cell line and in the experiment in which estrogens are added (specified in the table legend). Absorbance was measured using a Biotek Hybrid H4 reader at 570 nm wavelength for MTT assay.
(§3) Compounds at each concentration were tested in triplicate in a single experiment and each experiment was repeated at least three times independently.
(§4) Results of in vitro antiproliferative effects are shown in Table 3 and Table 4 and are presented as mean IC50 ± SD calculated using the Prolab-3 system based on Cheburator 0.4 software.
(§5) Statistical analysis: Unpaired t test. *p<0.05 as compared to appropriate cells not pretreated with estradiol. MTT assay was used for antiproliferative activity assessment.

Data set [5] relates to MDA-MB-231. The description is as above. The following applies: Homo sapiens, MDA-MB-231, 72 hours exposition, MTT. Format: cell-based, human. On the procedure:
as §2, §3, §4, §5

A further data set deals with HL-60. The data set can be described thus: MTT antiproliferative assay, 72 h. It counts as cell-based. The following applies: Homo sapiens, 72 hours exposition, read-out: IC50 [µg/ml] HL-60 normal. On the procedure:
as §2, §3, §4, §5

Data set [6] deals with HT-29. As to the kind of experiment: MTT antiproliferative assay, 72 h. The note with it: Homo sapiens, 72 hours exposition, read-out: IC50 [µg/ml] HT-29 normal. It counts as cell-based. As to the method: as §2, §3, §4, §5
In data set [7] the test system is HT-29. As to the kind of experiment: Long-term colony formation assay. It counts as cell-based, human. The following applies: treated at IC50 dose, colonies after 2 weeks; FIGS. 1A and 1B. On the procedure:
To confirm, anticancer effects, selected compounds of invention, PDIA1 inhibitors were tested in long-term colony formation assay. For long-term colony formation assay the human colorectal carcinoma cell lines Caco-2 and HT-29 were maintained as follows: HT-29 in RPMI-1640 with HEPES + OPTI-MEM (1:1) and Caco-2 in Eagle’s medium (all from IIET, Wroclaw, Poland) both culture media were supplemented with 2 mM L-glutamine, 1 mM sodium pyruvate (both from Sigma-Aldrich Chemie GmbH, Steinheim, Germany), fetal bovine serum: 5% HT-29 (GE Healthcare), 20% Caco-2 (Sigma-Aldrich Chemie GmbH, Steinheim, Germany), 100 U/ml penicillin, 100 µg/ml streptomycin (both from Polfa Tarchomin S.A., Warsaw, Poland). All cell lines were grown at 37° C. in a humidified atmosphere with 5% CO2. […] The viable cells were counted using a hemocytometer (trypan blue exclusion method) and seeded in triplicates at a density of 5 × 10^2 cells/3 ml and 2.5 × 10^2 cells/3 ml (9.5 cm^2) for Caco-2 and HT-29 respectively. […] After 2 weeks, the colonies were fixed and stained with 1% crystal violet/ethanol (Sigma-Aldrich), documented with Sony Alpha 300 camera (Sony), and counted manually using ImageJ 1.47 software (National Institutes of Health, Bethesda, MD, USA). Surviving fraction (SF) was calculated. […]

Data set [8] concerns Caco-2. The data set can be described thus: Cell cycle and cell death analysis. Format: cell-based. The following applies: FIG. 1C. As to the method:
Cell cycle and cell death analysis has been performed as previously described (Milczarek M et al. , 2015). Compounds were tested 5 times independently. Obtained results were analyzed using BD FACSDiva 6.2 software.

Data set [9] has as its system Caco-2. As to the kind of experiment: Caspase-3/7 activity assay. It counts as cell-based, human. The following applies: after 48 h treatment; compared to control. As to the method:
(§6) Caspase-3/7 activity assay has been performed as previously described (Milczarek M et al., 2015) after 24 and 48 h of incubation with disclosed compounds. Compounds were tested in triplicate in a single experiment and each experiment was repeated three times independently. Results were normalized to the protein content using the SRB method and reported as mean relative caspase-3/7 activity compared to the control sample ± SD.

In data set [10] the test system is HT-29. The data set can be described thus: Caspase-3/7 activity assay. It counts as cell-based, human. The note with it: after 24 and 48 h of incubation; compared to control. On the procedure:
as §6

For the compound `COC(=O)C1CN1S(=O)(=O)c1ccccc1` (stereo not drawn) [Compound C-3251, Methyl 1-(benzenesulfonyl)aziridine-2-carboxylate], the IC50 in the data set on MCF-7 [1] was 7.9 ± 6.5 µg/mL (≈ 32.7 µM); in the data set on MDA-MB-231 [2] (hypoxia (<1% of oxygen), read-out: IC50 [µg/ml] MDA-MB-231 hypoxia) it was 26.5 ± 1.3 µg/mL (≈ 110 µM); in the data set with MDA-MB-231 [2] (normal (21% of oxygen), read-out: IC50 [µg/ml] MDA-MB-231 normal) it was 24 ± 6.4 µg/mL (≈ 99.5 µM); in the data set with Caco-2 [3] it was 3.4 ± 0.2 µg/mL (≈ 14.1 µM); with MCF-7 [4] (200 nM estradiol, read-out: IC50 [µg/ml] MCF-7 + estradiol), 4 ± 0.2 µg/mL; in the data set on MCF-7 [4] (not pretreated with estradiol, read-out: IC50 [µg/ml] MCF-7 normal), 3.9 ± 0.5 µg/mL (≈ 16.2 µM). In addition, the IC50 in the data set on MDA-MB-231 [5] (200 nM estradiol, read-out: IC50 [µg/ml] MDA-MB-231 + estradiol) amounted to 29.7 ± 1.9 µg/mL; in the data set on MDA-MB-231 [5] (not pretreated with estradiol, read-out: IC50 [µg/ml] MDA-MB-231 normal), 26.6 ± 2.3 µg/mL (≈ 110 µM); in the data set on HL-60 it was 1.5 ± 0.1 µg/mL (≈ 6.22 µM); with HT-29 [6], 37.2 ± 8.4 µg/mL (≈ 154 µM). The “Selectivity index (SI): IC50 of MCF-10A/ IC50 of MCF-7” value with MCF-7 [4] amounted to 6.62. Besides, the “Inhibition of long-term colonies formation, HT-29” value with HT-29 [7] was “much potent towards HT-29 than CaCo-2 cell line”. Besides, the “Cell cycle distribution, CaCo-2” value with Caco-2 [8] is “increased the percentage of CaCo-2 cells in S cell cycle phase”. The “Caspase 3/7 activity, Caco-2” value in the data set on Caco-2 [9] is given as “significantly increase caspase 3/7 activity”. The “Caspase 3/7 activity, HT-29” value with HT-29 [10] is on record as “significantly increase caspase 3/7 activity”.
